# Assay results as given in patent US9765105B2, “Macrolide compound” (Pulike Biological Engineering, Inc., priority 2013, dated 2017).
# What was measured:
# Assay in all cases: in vitro susceptibility, MIC by mini broth dilution
# Format in all cases: cell-based
# [1] = test system: Pasteurella multocida CVCC399; details: strain CVCC399
# How it was run: (§1)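 Read-out is the minimum inhibitory concentration, measured by mini broth dilution following the US NCCLS approved standard, with 11 two-fold compound dilutions in DMSO and a 1:200-diluted inoculum.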
# [2] = test system: Actinobacillus pleuropneumoniae CVCC262; details: strain CVCC262
# How it was run: as §1
# Haemophilus parasuis = test system: Haemophilus parasuis
# How it was run: as §1
# [3] = test system: Streptococcus equines CVCC556; details: strain CVCC556
# How it was run: as §1
# [4] = test system: Staphylococcus aureus CVCC26003; details: strain CVCC26003
# How it was run: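 S. aureus CVCC26003 was revived and subcultured twice, 20 h each at 35° C, on solid medium, then diluted 1:200 in CAMHB liquid medium. Compounds received an 11-step two-fold DMSO dilution in parallel duplicate rows. MIC was read by mini broth dilution per NCCLS guidance.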
"MIC values, Pasteurella multocida CVCC399 [1] [ug/mi]","MIC values, Actinobacillus pleuropneumoniae CVCC262 [2] [ug/mi]","MIC values, Haemophilus parasuis (Haemophilus parasuis) [ug/mi]","MIC values, Streptococcus equines CVCC556 [3]","MIC values, Staphylococcus aureus CVCC26003 [4] [ug/mi]",SMILES
8,4,4,0.25 ug/mi,2,CCCN1C[C@H](C)[C@@H](O)[C@](C)(O)[C@@H](CC)OC(=O)[C@H](C)[C@@H](O[C@H]2C[C@@](C)(OC)[C@](O)(CNc3cccnc3Cl)[C@H](C)O2)[C@H](C)[C@@H](O[C@@H]2O[C@H](C)C[C@H](N(C)C)[C@H]2O)[C@](C)(O)C[C@H]1C [syzx-218]
1,0.5,0.25,0.25 ug/mi,0.25,CCCN1CC(C)C(O)C(C)(O)C(CC)OC(=O)C(C)C(OC2CC(C)(OC)C(O)(CNCCN3CCCC3)C(C)O2)C(C)C(OC2OC(C)CC(N(C)C)C2O)C(C)(O)CC1C (stereo not drawn) [syzx-190]
8,2,2,0.25 ug/mi,4,CCCN1C[C@H](C)[C@@H](O)[C@](C)(O)[C@@H](CC)OC(=O)[C@H](C)[C@@H](O[C@H]2C[C@@](C)(OC)[C@](O)(CNc3nc(OC)cc(OC)n3)[C@H](C)O2)[C@H](C)[C@@H](O[C@@H]2O[C@H](C)C[C@H](N(C)C)[C@H]2O)[C@](C)(O)C[C@H]1C [syzx-222]
2,2,4,0.25 ug/mi,2,CCCN1C[C@H](C)[C@@H](O)[C@](C)(O)[C@@H](CC)OC(=O)[C@H](C)[C@@H](O[C@H]2C[C@@](C)(OC)[C@](O)(CNc3nc(Cl)cc(Cl)n3)[C@H](C)O2)[C@H](C)[C@@H](O[C@@H]2O[C@H](C)C[C@H](N(C)C)[C@H]2O)[C@](C)(O)C[C@H]1C [syzx-202]
0.25,1,0.5,1 ug/mi,1,CCCN1C[C@H](C)[C@@H](O)[C@](C)(O)[C@@H](CC)OC(=O)[C@H](C)[C@@H](O[C@H]2C[C@@](C)(OC)[C@](O)(CNC3CCCCCC3)[C@H](C)O2)[C@H](C)[C@@H](O[C@@H]2O[C@H](C)C[C@H](N(C)C)[C@H]2O)[C@](C)(O)C[C@H]1C [syzx-203]
8,4,4,0.25 ug/mi,2,CCCN1C[C@H](C)[C@@H](O)[C@](C)(O)[C@@H](CC)OC(=O)[C@H](C)[C@@H](O[C@H]2C[C@@](C)(OC)[C@](O)(CNc3cc(Cl)ccc3C)[C@H](C)O2)[C@H](C)[C@@H](O[C@@H]2O[C@H](C)C[C@H](N(C)C)[C@H]2O)[C@](C)(O)C[C@H]1C [syzx-234]

# Continued, compound first:
SMILES,"MIC values, Pasteurella multocida CVCC399 [1] [ug/mi]","MIC values, Actinobacillus pleuropneumoniae CVCC262 [2] [ug/mi]","MIC values, Haemophilus parasuis (Haemophilus parasuis) [ug/mi]","MIC values, Streptococcus equines CVCC556 [3]","MIC values, Staphylococcus aureus CVCC26003 [4] [ug/mi]"
"CCC1OC(=O)C(C)C(OC2CC(C)(OC)C(O)(CNc3ccccc3)C(C)O2)C(C)C(OC2OC(C)CC(N(C)C)C2O)C(C)(O)CC(C)NCC(C)C(O)C1(C)O [syzx-4, (2R,3S,4R,5S,8R,10R,11R,12S,13S,14R)-13-[(2,6-dideoxy-3-C-methyl-3-O-methyl-4-C-[(phenylamino)methyl]-α-L-ribopyranosyl)oxy]-2-ethyl-3,4,10-trihydroxy-3,5,8,10,12,14-hexamethyl-11-[[3,4,6-trideoxy-3-(dimethylamino)-β-D-xylo-hexopyranosy]oxy]-1-oxa-7-azacyclopentadecan-15-one]",1,32,0.5,≦0.25 ug/mi,1
"CC[C@H]1OC(=O)[C@H](C)[C@@H](O[C@H]2C[C@@](C)(OC)[C@](O)(CNC(C)CCCN(C)C)[C@H](C)O2)[C@H](C)[C@@H](O[C@@H]2O[C@H](C)C[C@H](N(C)C)[C@H]2O)[C@](C)(O)C[C@@H](C)NC[C@H](C)[C@@H](O)[C@]1(C)O (stereo partly drawn) [syzx-59, (2R,3S,4R,5S,8R,10R,11R,12S,13S,14R)-13-[(2,6-dideoxy-3-C-methyl-3-O-methyl-4-C-[(1-methyl-4-dimethylaminobutylamino)-methyl]-α-L-ribopyranosyl)oxy]-2-ethyl-3,4,10-trihydroxy-3,5,8,10,12,14-hexamethyl-11-[[3,4,6-trideoxy-3-(dimethylamino)-β-D-xylo-hexopyranosy]oxy]-1-oxa-7-azacyclopentadecan-15-one]",2,32,0.5,2 ug/mi,1
CCCN1C[C@H](C)[C@@H](O)[C@](C)(O)[C@@H](CC)OC(=O)[C@H](C)[C@@H](O[C@H]2C[C@@](C)(OC)[C@](O)(CNCc3ccccc3F)[C@H](C)O2)[C@H](C)[C@@H](O[C@@H]2O[C@H](C)C[C@H](N(C)C)[C@H]2O)[C@](C)(O)C[C@H]1C [syzx-192],4,4,4,0.5 ug/mi,4
CCCCCCNC[C@]1(O)[C@H](C)O[C@@H](O[C@H]2[C@H](C)[C@@H](O[C@@H]3O[C@H](C)C[C@H](N(C)C)[C@H]3O)[C@](C)(O)C[C@@H](C)N(CCC)C[C@H](C)[C@@H](O)[C@](C)(O)[C@@H](CC)OC(=O)[C@@H]2C)C[C@@]1(C)OC [syzx-115],0.5,0.25,0.25,0.25 ug/mi,0.25
CCCN1C[C@H](C)[C@@H](O)[C@](C)(O)[C@@H](CC)OC(=O)[C@H](C)[C@@H](O[C@H]2C[C@@](C)(OC)[C@](O)(CNCc3ccc([N+](=O)[O-])cc3)[C@H](C)O2)[C@H](C)[C@@H](O[C@@H]2O[C@H](C)C[C@H](N(C)C)[C@H]2O)[C@](C)(O)C[C@H]1C [syzx-119],1,0.25,0.25,0.25 ug/mi,0.25
CCCN1C[C@H](C)[C@@H](O)[C@](C)(O)[C@@H](CC)OC(=O)[C@H](C)[C@@H](O[C@H]2C[C@@](C)(OC)[C@](O)(CNCC3CCNCC3)[C@H](C)O2)[C@H](C)[C@@H](O[C@@H]2O[C@H](C)C[C@H](N(C)C)[C@H]2O)[C@](C)(O)C[C@H]1C [syzx-193],2,4,2,0.25 ug/mi,4
CCCN1C[C@H](C)[C@@H](O)[C@](C)(O)[C@@H](CC)OC(=O)[C@H](C)[C@@H](O[C@H]2C[C@@](C)(OC)[C@](O)(CNc3ccc(C)o3)[C@H](C)O2)[C@H](C)[C@@H](O[C@@H]2O[C@H](C)C[C@H](N(C)C)[C@H]2O)[C@](C)(O)C[C@H]1C [syzx-178],4,2,4,0.5 ug/mi,4
CCCN1C[C@H](C)[C@@H](O)[C@](C)(O)[C@@H](CC)OC(=O)[C@H](C)[C@@H](O[C@H]2C[C@@](C)(OC)[C@](O)(CNc3ccc(I)cc3)[C@H](C)O2)[C@H](C)[C@@H](O[C@@H]2O[C@H](C)C[C@H](N(C)C)[C@H]2O)[C@](C)(O)C[C@H]1C [syzx-227],8,4,4,0.5 ug/mi,2
CCCN1C[C@H](C)[C@@H](O)[C@](C)(O)[C@@H](CC)OC(=O)[C@H](C)[C@@H](O[C@H]2C[C@@](C)(OC)[C@](O)(CNCCc3ccncc3)[C@H](C)O2)[C@H](C)[C@@H](O[C@@H]2O[C@H](C)C[C@H](N(C)C)[C@H]2O)[C@](C)(O)C[C@H]1C [syzx-191],4,0.5,0.5,0.5 ug/mi,1
